Calls of active or inactive are those of the source.
Tests used:
Assay type in all cases: functional
[1] = target: T1, Sentrin-specific protease 8 (Homo sapiens, UniProt Q96LD8);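 note: luminescence read-out of SENP8 inhibition, dose-response confirmation following an ultra-high-throughput screen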
T1 sequence (Q96LD8 whole entry): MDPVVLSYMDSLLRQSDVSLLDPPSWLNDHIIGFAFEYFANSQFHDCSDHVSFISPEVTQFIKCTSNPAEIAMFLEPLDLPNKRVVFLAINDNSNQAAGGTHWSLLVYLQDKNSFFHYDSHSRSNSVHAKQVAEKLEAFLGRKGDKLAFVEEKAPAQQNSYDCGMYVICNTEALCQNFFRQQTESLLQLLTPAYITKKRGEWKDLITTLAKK

[2] = target: T2, Replicative DNA helicase DnaB (Mycobacterium tuberculosis, UniProt P9WMR3); experiment: DnaB intein splicing inhibitors, dose response, biochemical, cell-free fluorescence (AID 449749)
T2 sequence (P9WMR3 whole entry): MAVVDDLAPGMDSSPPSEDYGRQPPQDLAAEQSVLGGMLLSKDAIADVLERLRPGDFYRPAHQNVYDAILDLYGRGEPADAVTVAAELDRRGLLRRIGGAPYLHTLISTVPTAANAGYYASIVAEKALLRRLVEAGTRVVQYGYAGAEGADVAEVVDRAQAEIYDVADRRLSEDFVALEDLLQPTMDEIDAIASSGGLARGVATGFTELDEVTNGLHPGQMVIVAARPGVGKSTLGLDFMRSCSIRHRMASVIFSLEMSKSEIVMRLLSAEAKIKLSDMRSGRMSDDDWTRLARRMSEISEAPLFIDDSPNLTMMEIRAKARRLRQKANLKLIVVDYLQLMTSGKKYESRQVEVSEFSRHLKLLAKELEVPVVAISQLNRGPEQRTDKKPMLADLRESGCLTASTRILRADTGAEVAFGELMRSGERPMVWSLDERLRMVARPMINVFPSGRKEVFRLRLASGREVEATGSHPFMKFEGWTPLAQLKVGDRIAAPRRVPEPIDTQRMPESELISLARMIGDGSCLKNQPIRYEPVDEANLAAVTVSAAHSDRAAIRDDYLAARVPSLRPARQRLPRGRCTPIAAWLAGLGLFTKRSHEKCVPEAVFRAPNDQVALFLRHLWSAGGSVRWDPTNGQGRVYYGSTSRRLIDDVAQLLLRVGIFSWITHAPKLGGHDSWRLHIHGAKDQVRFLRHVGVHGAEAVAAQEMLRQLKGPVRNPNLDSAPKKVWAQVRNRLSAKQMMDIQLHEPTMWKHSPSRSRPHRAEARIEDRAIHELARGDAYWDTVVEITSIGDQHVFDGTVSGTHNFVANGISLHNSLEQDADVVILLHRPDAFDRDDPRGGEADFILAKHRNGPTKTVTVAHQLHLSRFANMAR

[3] = target: T3, Protein RecA (Mycobacterium tuberculosis, UniProt P9WHJ3); experiment: Fluorescence Cell-Free Homogeneous Dose Retest to Identify Inhibitors of RecA-Intein Splicing Activity. [Related pubchem assays (depositor defined):AID2097, AID2223, AID489010, AID492950]
T3 sequence (P9WHJ3 whole entry): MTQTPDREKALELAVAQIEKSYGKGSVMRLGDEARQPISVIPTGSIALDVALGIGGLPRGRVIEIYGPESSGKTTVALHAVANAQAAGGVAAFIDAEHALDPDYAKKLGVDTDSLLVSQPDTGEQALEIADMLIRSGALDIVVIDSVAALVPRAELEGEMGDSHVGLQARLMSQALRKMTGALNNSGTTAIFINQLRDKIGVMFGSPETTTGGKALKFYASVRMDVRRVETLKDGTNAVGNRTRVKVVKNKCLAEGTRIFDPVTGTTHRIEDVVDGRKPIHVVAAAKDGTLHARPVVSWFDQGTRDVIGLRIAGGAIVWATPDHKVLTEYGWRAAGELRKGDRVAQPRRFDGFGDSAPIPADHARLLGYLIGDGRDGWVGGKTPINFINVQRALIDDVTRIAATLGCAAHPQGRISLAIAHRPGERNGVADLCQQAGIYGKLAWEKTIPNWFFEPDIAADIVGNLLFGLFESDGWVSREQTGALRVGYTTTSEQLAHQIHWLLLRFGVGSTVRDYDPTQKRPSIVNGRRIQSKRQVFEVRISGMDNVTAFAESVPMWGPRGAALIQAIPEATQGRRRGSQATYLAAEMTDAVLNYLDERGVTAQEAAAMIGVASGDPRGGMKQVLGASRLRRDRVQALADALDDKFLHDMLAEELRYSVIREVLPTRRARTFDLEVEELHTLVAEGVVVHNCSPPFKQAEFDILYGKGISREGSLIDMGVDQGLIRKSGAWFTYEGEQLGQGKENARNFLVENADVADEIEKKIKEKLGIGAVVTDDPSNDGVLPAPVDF

[4] = CAL PDZ domain peptide-binding inhibitors, dose response, biochemical, fluorescence polarization, untagged CAL PDZ, dry powder (AID 602255)
[5] = growth suppression of PTEN-null colon cells, dose response, cell-based, HCT116 PTEN knockout (AID 1047);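 note: HCT116 colon tumor cells with PTEN knocked out; cells exposed to compound for 60 hours before readout; potency for loss of cell viability measured by luminescence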

Row | Compound | IC50 [1] | AC50 [2] | EC50 [3] | AC50 [4] | EC50 [5]
1 | Cc1cccc(N=Nc2ccc(N(C)C)cc2)c1 | 3.74 µM (active) | – | – | – | –
2 | COc1ccccc1N1C(=O)Cc2ccccc2C1=O | 49.4 µM (active) | > 380 µM (inactive) | 9.77 µM (active) | – | –
3 | Oc1ccccc1/C=C/c1noc(-c2ccccc2O)n1 | > 100 µM (inactive) | – | – | – | –
4 | O=C(O)CSc1cc(NS(=O)(=O)c2ccc(Cl)cc2)c2ccccc2c1O | – | 2.91 µM (active) | 2.39 µM (active) | 56.1 µM (active) | –
5 | Cc1nn(-c2ccccc2)c(Cl)c1CN(C(=O)CCl)c1ccc(Cl)cc1 | – | 1.52 µM (active) | 0.355 µM (active) | – | 4.07 µM (active)

— ChEMBL document CHEMBL1201862, “PubChem BioAssay data set” (2004)
